Results: patent US10160726B2, “Quinolone derivatives as antibacterials” (priority 2014, dated 2018)
Values after ≈ are worked out from the molar mass of the structure shown. Where a name gives a salt, the structure may show the parent alone. Read-outs that look alike come from different tables or passages of the source.

What was measured:
Format in all cases: cell-based
[1] = system: P. aeruginosa NB52023-CDK0006 (gyrA T83I, parC S87L); test: microbe, parasite or virus in culture; conditions: Pseudomonas aeruginosa, 20 h, read-out: Antibacterial activity (MIC) NB52023-CDK0006
[2] = system: P. aeruginosa NB52019 (wild-type PAO1); test: MIC, broth microdilution (CLSI); conditions: Pseudomonas aeruginosa, read-out: Antibacterial activity (MIC) NB52019
[3] = system: E. coli NB27177 (efflux deficient CGSC 11430, ΔtolC732::kan); test: microbe, parasite or virus in culture; conditions: Escherichia coli, 20 h, read-out: Antibacterial activity (MIC) NB27177
[4] = system: P. aeruginosa NB52023 (efflux deficient K1542, ΔmexX ΔmexB); test: microbe, parasite or virus in culture; conditions: Pseudomonas aeruginosa, 20 h, read-out: Antibacterial activity (MIC) NB52023
[5] = system: E. coli ATCC 25922 (NB27001); test: MIC, broth microdilution (CLSI); conditions: Escherichia coli, ATCC25922; E. coli ATCC 25922; 35° C., 20 hours; read-out: Antibacterial activity (MIC) NB27001
[6] = system: S. aureus NB01006-AVR005 (gyrA S84L, grlA S80F, grlB E471K); test: microbe, parasite or virus in culture; conditions: Staphylococcus aureus, 20 h, read-out: Antibacterial activity (MIC) NB01006-AVR005
[7] = system: S. aureus ATCC 29213 (NB01001); test: MIC, broth microdilution (CLSI); conditions: Staphylococcus aureus, ATCC29213; S. aureus ATCC 29213; 35° C., 20 hours; read-out: Antibacterial activity (MIC) NB01001
[8] = P. aeruginosa wild-type PAO1, 35° C., 20 hours

| SMILES | MIC [1] [µg/mL] | MIC [2, 8] [µg/mL] | MIC [3] [µg/mL] | MIC [4] [µg/mL] | MIC [5] [µg/mL] | MIC [6] [µg/mL] | MIC [7] [µg/mL] | MIC ([2]; PAO1, 20 h) [µg/mL] |
| --- | --- | --- | --- | --- | --- | --- | --- | --- |
| CNCc1cc(=O)n(C2CC2)c2c(C)c(N3CCC(CN)C3)c(F)cc12.O=C(O)C(F)(F)F (centres unmarked) [Example 88, 7-(3-(aminomethyl)pyrrolidin-1-yl)-1-cyclopropyl-6-fluoro-8-methyl-4-((methylamino)methyl)quinolin-2(1H)-one TFA salt] | 4 | 16 | 0.25 | 2 | 4 | 2 | 1 |  |
| Cc1c(N2CCC(CN)C2)c(F)cc2c(CCN)cc(=O)n(C3CC3)c12.O=C(O)C(F)(F)F (centres unmarked) [Example 91, 4-(2-aminoethyl)-7-(3-(aminomethyl)pyrrolidin-1-yl)-1-cyclopropyl-6-fluoro-8-methylquinolin-2(1H)-one TFA salt] | 16 | 16 | 1 | 8 | 8 | 1 | 1 |  |
| Cc1c(-c2ccc(N)nc2)ccc2ccc(=O)n(C3CC3)c12 [Example 75, 7-(6-aminopyridin-3-yl)-1-cyclopropyl-8-methylquinolin-2(1H)-one] | > 32 |  | 0.5 (≈ 1.72 µM) | 32 (≈ 110 µM) | 32 (≈ 110 µM) | 8 (≈ 27.5 µM) | 8 (≈ 27.5 µM) | > 32 |
| Cc1c(N2CC[C@@H]([C@H](C)N)C2)ccc2c(O)cc(=O)n(C3CC3)c12 [Example 72, 7-((R)-3-((S)-1-aminoethyl)pyrrolidin-1-yl)-1-cyclopropyl-4-hydroxy-8-methylquinolin-2(1H)-one TFA salt] | > 32 |  | 16 | > 32 | 32 | 8 | 16 | 32 |
| COCc1cc(=O)n(C2CC2)c2c(C)c(N3CC[C@@H]([C@H](C)N)C3)c(F)cc12 [Example 48, 7-((R)-3-((S)-1-aminoethyl)pyrrolidin-1-yl)-1-cyclopropyl-6-fluoro-4-(methoxymethyl)-8-methylquinolin-2(1H)-one] | 16 (≈ 42.8 µM) |  | 0.06 (≈ 0.161 µM) | 16 (≈ 42.8 µM) | 8 (≈ 21.4 µM) | 0.125 (≈ 0.335 µM) | 0.125 (≈ 0.335 µM) | 32 (≈ 85.7 µM) |
| COc1cc2ccc(-c3ccc(N)nc3)c(C)c2n(C2CC2)c1=O [Example 78, 7-(6-Aminopyridin-3-yl)-1-cyclopropyl-3-methoxy-8-methylquinolin-2(1H)-one TFA salt] | > 32 |  | 1 | > 32 | 32 | 16 | 8 | > 32 |
| Cc1c(N2CC[C@@H]([C@H](C)N)C2)c(F)cc2c(-c3ccccc3)cc(=O)n(C3CC3)c12 [Example 19, 7-((R)-3-((S)-1-aminoethyl)pyrrolidin-1-yl)-1-cyclopropyl-6-fluoro-8-methyl-4-phenylquinolin-2(1H)-one] | > 32 | > 32 | 0.5 (≈ 1.23 µM) | > 32 | 32 (≈ 78.9 µM) | 0.5 (≈ 1.23 µM) | 0.5 (≈ 1.23 µM) |  |
| Cc1c(N2CC[C@@H]([C@H](C)N)C2)c(F)cc2c(-c3cn[nH]c3)cc(=O)n(C3CC3)c12 [Example 18, 7-((R)-3-((S)-1-aminoethyl)pyrrolidin-1-yl)-1-cyclopropyl-6-fluoro-8-methyl-4-(1H-pyrazol-4-yl)quinolin-2(1H)-one] | 16 (≈ 40.5 µM) |  | 0.125 (≈ 0.316 µM) | 8 (≈ 20.2 µM) | 32 (≈ 80.9 µM) | 0.25 (≈ 0.632 µM) | 0.5 (≈ 1.26 µM) | 32 (≈ 80.9 µM) |
| Cc1c(N2CC[C@H](N)C2)c(F)c(F)c2c(CN)cc(=O)n(C3CC3)c12 [Example 83.6, (S)-4-(aminomethyl)-7-(3-aminopyrrolidin-1-yl)-1-cyclopropyl-5,6-difluoro-8-methylquinolin-2(1H)-one] | 0.5 (≈ 1.44 µM) |  | 0.06 (≈ 0.172 µM) | 0.25 (≈ 0.718 µM) | 0.5 (≈ 1.44 µM) | 2 (≈ 5.74 µM) | 1 (≈ 2.87 µM) | 4 (≈ 11.5 µM) |
| Cc1c(N2CCC(CN)C2)c(F)c(CN)c2ccc(=O)n(C3CC3)c12.O=C(O)C(F)(F)F (centres unmarked) [Example 100, 5-(aminomethyl)-7-(3-(aminomethyl)pyrrolidin-1-yl)-1-cyclopropyl-6-fluoro-8-methylquinolin-2(1H)-one TFA salt] | 16 | > 32 | 2 | 8 | 32 | 4 | 8 |  |
| Cc1c(N2CC[C@@H]([C@H](C)N)C2)c(F)cc2c(OCCCc3n[nH]c(=O)o3)cc(=O)n(C3CC3)c12 [Example 65, 5-(3-((7-((R)-3-((S)-1-aminoethyl)pyrrolidin-1-yl)-1-cyclopropyl-6-fluoro-8-methyl-2-oxo-1,2-dihydroquinolin-4-yl)oxy)propyl)-1,3,4-oxadiazol-2(3H)-one] | > 32 |  | 4 (≈ 8.48 µM) | > 32 | 32 (≈ 67.9 µM) | 2 (≈ 4.24 µM) | 4 (≈ 8.48 µM) | > 32 |
| Cc1c(N2CCC(CN)C2)c(F)cc2c(CNCCN)cc(=O)n(C3CC3)c12.O=C(O)C(F)(F)F (centres unmarked) [Example 87, 4-(((2-aminoethyl)amino)methyl)-7-(3-(aminomethyl)pyrrolidin-1-yl)-1-cyclopropyl-6-fluoro-8-methylquinolin-2(1H)-one TFA salt] | 8 | 16 | 0.5 | 4 | 8 | 0.25 | 0.5 |  |
| COc1cc(=O)n(C2CC2)c2c(C)c(-c3ccc(N)nc3)ccc12 [Example 69, 7-(6-aminopyridin-3-yl)-1-cyclopropyl-4-methoxy-8-methylquinolin-2(1H)-one] | > 32 |  | 0.5 (≈ 1.56 µM) | > 32 | 32 (≈ 99.6 µM) | 2 (≈ 6.22 µM) | 2 (≈ 6.22 µM) | > 32 |
| Cc1c(N2CCC(F)(CN)C2)c(F)cc2c(CN)cc(=O)n(C3CC3)c12 (centres unmarked) [Example 81.33, 4-(aminomethyl)-7-(3-(aminomethyl)-3-fluoropyrrolidin-1-yl)-1-cyclopropyl-6-fluoro-8-methylquinolin-2(1H)-one] | 1 (≈ 2.76 µM) |  | 0.06 (≈ 0.166 µM) | 0.5 (≈ 1.38 µM) | 0.5 (≈ 1.38 µM) | 1 (≈ 2.76 µM) | 0.5 (≈ 1.38 µM) | 2 (≈ 5.52 µM) |
| Cc1c(N2CC[C@@H]([C@H](C)N)C2)c(F)cc2c(NS(C)(=O)=O)cc(=O)n(C3CC3)c12 [Example 37, N-(7-((R)-3-((S)-1-aminoethyl)pyrrolidin-1-yl)-1-cyclopropyl-6-fluoro-8-methyl-2-oxo-1,2-dihydroquinolin-4-yl)methanesulfonamide] | > 32 |  | 4 (≈ 9.47 µM) | > 32 | 32 (≈ 75.7 µM) | 16 (≈ 37.9 µM) | 8 (≈ 18.9 µM) | 32 (≈ 75.7 µM) |
| CCOC(=O)/C=C/c1cc(=O)n(C2CC2)c2c(C)c(N3CC[C@@H]([C@H](C)N)C3)c(F)cc12 [Example 21, (E)-ethyl 3-(7-((R)-3-((S)-1-aminoethyl)pyrrolidin-1-yl)-1-cyclopropyl-6-fluoro-8-methyl-2-oxo-1,2-dihydroquinolin-4-yl)acrylate] | 32 (≈ 74.9 µM) |  | 0.125 (≈ 0.292 µM) | 32 (≈ 74.9 µM) | 16 (≈ 37.4 µM) | 0.125 (≈ 0.292 µM) | 0.125 (≈ 0.292 µM) | > 32 |
| Cc1c(N2CC3CC3(N)C2)c(F)cc2c(CN)cc(=O)n(C3CC3)c12 (centres unmarked) [Example 81.23, 7-(1-amino-3-azabicyclo[3.1.0]hexan-3-yl)-4-(aminomethyl)-1-cyclopropyl-6-fluoro-8-methylquinolin-2(1H)-one] | 1 (≈ 2.92 µM) |  | 0.06 (≈ 0.175 µM) | 0.5 (≈ 1.46 µM) | 0.25 (≈ 0.73 µM) | 0.5 (≈ 1.46 µM) | 0.5 (≈ 1.46 µM) | 4 (≈ 11.7 µM) |
| Cc1c(-c2ccc(N)nc2)ccc2cc(O)c(=O)n(C3CC3)c12 [Example 77, 7-(6-Aminopyridin-3-yl)-1-cyclopropyl-3-hydroxy-8-methylquinolin-2(1H)-one TFA salt] | > 32 |  | 0.5 | > 32 | 32 | 32 | 4 | > 32 |
| Cc1c(F)c(N2CCC(CN)C2)c(C)c2c1ccc(=O)n2C1CC1.O=C(O)C(F)(F)F (centres unmarked) [Example 101, 7-(3-(aminomethyl)pyrrolidin-1-yl)-1-cyclopropyl-6-fluoro-5,8-dimethylquinolin-2(1H)-one TFA salt] | 16 | > 32 | 0.125 | 8 | 8 | 0.125 | 0.5 |  |
| Cc1c(N2CC[C@@H]([C@H](C)N)C2)c(F)cc2c(OCCCC#N)cc(=O)n(C3CC3)c12 [Example 57, 4-((7-((R)-3-((S)-1-aminoethyl)pyrrolidin-1-yl)-1-cyclopropyl-6-fluoro-8-methyl-2-oxo-1,2-dihydroquinolin-4-yl)oxy)butanenitrile] | > 32 |  | 0.25 (≈ 0.606 µM) | 16 (≈ 38.8 µM) | 32 (≈ 77.6 µM) | 0.25 (≈ 0.606 µM) | 0.25 (≈ 0.606 µM) | > 32 |
